# Reference: PubChem BioAssay (NCI)
#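 All cell lines were grown in 96-well plates and treated with compound for 48 hours. TGI: concentration producing complete growth inhibition.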
# How the values were obtained:
# Assay in all cases: NCI tumour cell line growth inhibition, 48 h
# [1] = test system: KM12 colon
# [2] = test system: NCI-H522 lung
# [3] = test system: SK-MEL-28 melanoma
# [4] = test system: SW-620 colon
# [5] = test system: M14 melanoma
# [6] = test system: SNB-75 CNS
# [7] = test system: RXF 393 renal
# [8] = test system: KM20L2 colon
# [9] = test system: HL-60(TB) leukemia
# [10] = test system: SK-MEL-5 melanoma
# [11] = test system: MALME-3M melanoma
# [12] = test system: CCRF-CEM leukemia
# [13] = test system: K-562 leukemia
# [14] = test system: NCI-H226 lung
# [15] = test system: NCI-H23 lung
# [16] = test system: M19-MEL melanoma
# [17] = test system: SK-MEL-2 melanoma
# [18] = test system: LOX IMVI melanoma
# [19] = test system: A549 NSCLC
# [20] = test system: HCC-2998 colon
# [21] = test system: HOP-62 NSCLC
# [22] = test system: EKVX NSCLC
# [23] = test system: DLD-1 colon
# [24] = test system: NCI-H460 lung
# [25] = test system: LXFL 529 NSCLC
# [26] = test system: A498 renal
# [27] = test system: SNB-19 CNS
# [28] = test system: MOLT-4 leukemia
# [29] = test system: U251 CNS
# [30] = test system: COLO 205 colon
# [31] = test system: ACHN renal
# [32] = test system: OVCAR-8 ovarian
# [33] = test system: IGROV1 ovarian
# [34] = test system: 786-0 renal
# [35] = test system: DMS 114 small cell lung
# [36] = test system: HT29 colon
# [37] = test system: OVCAR-4 ovarian
# [38] = test system: OVCAR-3 ovarian
# [39] = test system: SF-539 CNS
# [40] = test system: DMS 273 small cell lung
# [41] = test system: SN12C renal
# [42] = test system: HOP-92 NSCLC
# [43] = test system: SK-OV-3 ovarian
# [44] = test system: UO-31 renal
# [45] = test system: OVCAR-5 ovarian
# [46] = test system: SF-295 CNS
# [47] = test system: SNB-78 CNS
# [48] = test system: XF 498 CNS
# [49] = test system: RXF-631 renal
# [50] = test system: TK-10 renal
# [51] = test system: CAKI-1 renal
# [52] = test system: RPMI-8226 leukemia
# [53] = test system: SF-268 CNS
# [54] = test system: UACC-257 melanoma
# [55] = test system: HCT-15 colon
# [56] = test system: HOP-18 NSCLC
# [57] = test system: UACC-62 melanoma
# [58] = test system: HCT-116 colon
# [59] = test system: SN12K1 renal
# [60] = test system: NCI/ADR-RES ovarian
# [61] = test system: MCF7 breast
# [62] = test system: P388 leukemia
# [63] = test system: P388/ADR leukemia
smiles,measurement,setting,value
CC1=C(C(=O)Nc2ccc([N+](=O)[O-])cc2)C(c2ccccc2O)C(C(=O)Nc2ccc([N+](=O)[O-])cc2)=C(C)N1,TGI,[1],55 µM
same,TGI,[2],35.9 µM
same,TGI,[3],61.5 µM
same,TGI,[4],94.1 µM
same,TGI,[5],45.1 µM
same,TGI,[6],89 µM
same,TGI,[7],45.9 µM
same,TGI,[8],35.8 µM
same,TGI,[9],48.2 µM
same,TGI,[10],31.8 µM
same,TGI,[11],49.4 µM
same,TGI,[12],61.7 µM
same,TGI,[13],74.2 µM
same,TGI,[14],46.9 µM
same,TGI,[15],66.7 µM
same,TGI,[16],64.4 µM
same,TGI,[17],31.8 µM
same,TGI,[18],34.5 µM
same,TGI,[19],90.4 µM
same,TGI,[20],27.2 µM
same,TGI,[21],31.9 µM
same,TGI,[22],84.9 µM
same,TGI,[23],57.8 µM
same,TGI,[24],56.4 µM
same,TGI,[25],48.7 µM
same,TGI,[26],66.4 µM
same,TGI,[27],> 100 µM
same,TGI,[28],52.8 µM
same,TGI,[29],61.1 µM
same,TGI,[30],40.8 µM
same,TGI,[31],58 µM
same,TGI,[32],> 100 µM
same,TGI,[33],> 100 µM
same,TGI,[34],64.8 µM
same,TGI,[35],44.8 µM
same,TGI,[36],57.8 µM
same,TGI,[37],73.8 µM
same,TGI,[38],51.4 µM
same,TGI,[39],57.8 µM
same,TGI,[40],47.1 µM
same,TGI,[41],55.5 µM
same,TGI,[42],40.1 µM
same,TGI,[43],94.7 µM
same,TGI,[44],67.8 µM
same,TGI,[45],55.8 µM
same,TGI,[46],72.2 µM
same,TGI,[47],91.8 µM
same,TGI,[48],31.2 µM
same,TGI,[49],36.6 µM
same,TGI,[50],> 100 µM
same,TGI,[51],62.1 µM
same,TGI,[52],53.4 µM
same,TGI,[53],49 µM
same,TGI,[54],51.1 µM
O=C1[C@H]2ON(c3ccccc3)C(c3ccccc3F)[C@H]2C(=O)N1c1ccc(Cc2ccc(N3C(=O)[C@@H]4ON(c5ccccc5)C(c5ccccc5F)[C@@H]4C3=O)cc2)cc1 (some centres not stated),TGI,[1],> 100 µM
same,TGI,[3],> 100 µM
same,TGI,[4],> 100 µM
same,TGI,[5],> 100 µM
same,TGI,[6],> 100 µM
same,TGI,[7],> 100 µM
same,TGI,[8],> 100 µM
same,TGI,[55],> 100 µM
same,TGI,[9],> 100 µM
same,TGI,[10],> 100 µM
same,TGI,[11],> 100 µM
same,TGI,[12],> 100 µM
same,TGI,[13],> 100 µM
same,TGI,[14],> 100 µM
same,TGI,[15],> 100 µM
same,TGI,[16],> 100 µM
same,TGI,[17],> 100 µM
same,TGI,[18],> 100 µM
same,TGI,[19],> 100 µM
same,TGI,[20],> 100 µM
same,TGI,[21],> 100 µM
same,TGI,[23],> 100 µM
same,TGI,[24],> 100 µM
same,TGI,[25],> 100 µM
same,TGI,[26],> 100 µM
same,TGI,[28],> 100 µM
same,TGI,[29],> 100 µM
same,TGI,[30],> 100 µM
same,TGI,[31],> 100 µM
same,TGI,[33],> 100 µM
same,TGI,[56],> 100 µM
same,TGI,[34],> 100 µM
same,TGI,[35],> 100 µM
same,TGI,[36],> 100 µM
same,TGI,[37],> 100 µM
same,TGI,[38],> 100 µM
same,TGI,[39],> 100 µM
same,TGI,[40],> 100 µM
same,TGI,[41],> 100 µM
same,TGI,[42],> 100 µM
same,TGI,[43],> 100 µM
same,TGI,[44],> 100 µM
same,TGI,[45],> 100 µM
same,TGI,[46],> 100 µM
same,TGI,[47],> 100 µM
same,TGI,[48],> 100 µM
same,TGI,[49],> 100 µM
same,TGI,[57],> 100 µM
same,TGI,[51],> 100 µM
same,TGI,[52],> 100 µM
same,TGI,[53],> 100 µM
same,TGI,[54],> 100 µM
C/C(CC(=O)Nc1ccc(Cl)cc1)=N\NC(=O)C[n+]1ccccc1,TGI,[1],> 100 µM
same,TGI,[2],> 100 µM
same,TGI,[3],> 100 µM
same,TGI,[4],> 100 µM
same,TGI,[58],> 100 µM
same,TGI,[5],> 100 µM
same,TGI,[6],> 100 µM
same,TGI,[7],> 100 µM
same,TGI,[8],> 100 µM
same,TGI,[9],> 100 µM
same,TGI,[10],> 100 µM
same,TGI,[11],> 100 µM
same,TGI,[12],> 100 µM
same,TGI,[13],> 100 µM
same,TGI,[14],> 100 µM
same,TGI,[15],> 100 µM
same,TGI,[17],> 100 µM
same,TGI,[18],> 100 µM
same,TGI,[19],> 100 µM
same,TGI,[20],> 100 µM
same,TGI,[21],> 100 µM
same,TGI,[22],> 100 µM
same,TGI,[23],> 100 µM
same,TGI,[24],> 100 µM
same,TGI,[25],> 100 µM
same,TGI,[28],> 100 µM
same,TGI,[29],> 100 µM
same,TGI,[30],> 100 µM
same,TGI,[31],> 100 µM
same,TGI,[32],> 100 µM
same,TGI,[33],> 100 µM
same,TGI,[34],> 100 µM
same,TGI,[35],> 100 µM
same,TGI,[36],> 100 µM
same,TGI,[38],> 100 µM
same,TGI,[39],> 100 µM
same,TGI,[40],> 100 µM
same,TGI,[42],> 100 µM
same,TGI,[43],> 100 µM
same,TGI,[44],> 100 µM
same,TGI,[45],> 100 µM
same,TGI,[46],> 100 µM
same,TGI,[47],> 100 µM
same,TGI,[48],> 100 µM
same,TGI,[49],> 100 µM
same,TGI,[57],> 100 µM
same,TGI,[50],> 100 µM
same,TGI,[52],> 100 µM
same,TGI,[53],> 100 µM
same,TGI,[54],> 100 µM
C=CC[N+](CCO)(CCO)CCCCCCCCCCCCCCCCCC,TGI,[1],3.58 µM
same,TGI,[2],13.5 µM
same,TGI,[3],28 µM
same,TGI,[4],22.2 µM
same,TGI,[58],14.7 µM
same,TGI,[6],7.55 µM
same,TGI,[7],5.24 µM
same,TGI,[8],17.1 µM
same,TGI,[55],41.4 µM
same,TGI,[9],2.51 µM
same,TGI,[10],25.6 µM
same,TGI,[11],31.1 µM
same,TGI,[12],3.76 µM
same,TGI,[13],18.2 µM
same,TGI,[14],28.7 µM
same,TGI,[15],44.9 µM
same,TGI,[16],11.9 µM
same,TGI,[17],32.7 µM
same,TGI,[18],12.6 µM
same,TGI,[19],35 µM
same,TGI,[20],10.6 µM
same,TGI,[21],27.3 µM
same,TGI,[22],47.7 µM
same,TGI,[23],30.2 µM
same,TGI,[24],19.2 µM
same,TGI,[26],42.5 µM
same,TGI,[27],35.3 µM
same,TGI,[28],3.85 µM
same,TGI,[29],4.48 µM
same,TGI,[30],11 µM
same,TGI,[32],59.5 µM
same,TGI,[33],3.78 µM
same,TGI,[56],21.3 µM
same,TGI,[35],18.4 µM
same,TGI,[36],12 µM
same,TGI,[37],16.4 µM
same,TGI,[38],27.1 µM
same,TGI,[59],20.5 µM
same,TGI,[39],13.1 µM
same,TGI,[40],5.83 µM
same,TGI,[41],24 µM
same,TGI,[42],3.91 µM
same,TGI,[43],27.9 µM
same,TGI,[44],31.4 µM
same,TGI,[45],31.5 µM
same,TGI,[46],21.5 µM
same,TGI,[47],12.6 µM
same,TGI,[60],55.8 µM
same,TGI,[57],20.2 µM
same,TGI,[51],17.9 µM
same,TGI,[61],> 44.8 µM
same,TGI,[52],5.45 µM
same,TGI,[53],13.3 µM
same,TGI,[54],17.2 µM
same,TGI,[62],1.21 µM
same,TGI,[63],> 49 µM
